Reference: patent US6849272B1, “Endosomolytic agents and cell delivery systems” (Massachusetts Institute of Technology, priority 1999, dated 2005)

Tests used:
[1] = test system: cells; details: in vitro; cited from earlier work
[2] = test system: cells; type: cell-based
Description: Another synthetic polymer that has been recently evaluated for its ability to mediate gene transfer is polyethyleneimine (PEI) which contains primary, secondary, and tertiary amines (Abdallah, B.; Hassan, A.; Benoist; Goula, D.; Behr, J. P.; Demeneix, B. A. Human Gene Therapy 1996, 7, 1947; Boussif, O.; Lezoualc'h, F.; Zanta, M. A.; Mergny, M. D., Scherman, D.; Demeneix, B.; Behr, J. P. Proc. Natl. Acad. Sci. USA 1995, 92, 7297). The advantage of PEI over polylysine as a mediator for gene transfer is that it contains a built-in mechanism for endosome escape. The overall protonation of PEI at pH=7 is approximately 20% whereas the overall protonation at pH=5 is approximately 45% (Suh, J.; Paik, H. J.; Hwang, B. K. Bioorg. Chem. 1994, 22, 318). […] In fact, PEI is capable of mediating gene transfer equal to the best lipid systems.

Compound | concentration required to enhance transfection [1] | toxicity to cells in vitro [2]
OCC(O)CO [glycerol] | 1-1.5 M | –
polyethyleneimine [PEI] | – | toxic to cells in vitro
